{
  "source": "paper PMC4519872",
  "about": "“Characterization of the Interaction between Gallic Acid and Lysozyme by Molecular Dynamics Simulation and Optical Spectroscopy” (International Journal of Molecular Sciences, 2015)",
  "biological_target": "T1, lysozyme (LYS) (Gallus gallus, UniProt P00698)",
  "T1 construct": "gene LYZ; commercial lysozyme, Sigma-Aldrich, >=18,000 U; single chain of 129 residues; docking model PDB 1GWD",
  "T1 sequence (P00698 19-147)": "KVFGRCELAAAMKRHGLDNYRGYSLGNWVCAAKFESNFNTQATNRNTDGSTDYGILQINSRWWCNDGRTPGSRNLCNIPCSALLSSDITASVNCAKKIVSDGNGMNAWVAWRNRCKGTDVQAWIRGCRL",
  "assay": "intrinsic fluorescence quenching titration",
  "format": "binding",
  "details": "298 K; Tris-HCl pH 7.43; excitation 282 nm; inner-filter corrected; double-log",
  "from_the_text": "intrinsic fluorescence quenching titration on lysozyme (LYS)",
  "data": [
    {"smiles": "O=C(O)c1cc(O)c(O)c(O)c1", "note": "[GA, 3,4,5-trihydroxybenzoic acid]", "values": [
      {"measurement": "K", "result": 393000, "unit": "L/mol"}
    ]}
  ]
}
